# Key:
# Enteropeptidase = Enteropeptidase (Homo sapiens, UniProt P98073); test: Enteropeptidase
# Source text: (§1) Table printed on a drawing sheet, Fig. 5
# Head of the field: Enteropeptidase
# (§2) The patent's description of the figure: FIG. 5 is a Table showing the IC 50 (in nM) of enteropeptidase, various serine proteases and other enzyme families, in the presence of compounds OBE 1999, OBE 2000, OBE 2001 or OBE 2002.
# (§3) First copying reader's note: Each column is one compound; each row gives its IC50 against the named enzyme.
# Where the first naming reader finds the target: head: Enteropeptidase
# [1] = Effect on absorption of 14C-proteins after oral administration; type: in vivo; details: for Cmax of 14C-protein radioactivity in plasma: control 0.9%±0.27; for AUC mean of 14C-protein radioactivity in plasma: control 2.214±0.1875; for plateau concentration of 14C-protein radioactivity in plasma: 1 h to 4 h post-administration, control 0.5%
# Description: 3. Effect of OBE2001 on Protein Absorption
# This third in vivo experiment was designed to obtain information on the absorption of ^14C-proteins in absence or in presence of OBE2001 at two different doses (5 mg/Kg or 50 mg/Kg) after an oral administration to male Swiss mice.
# 15 male Swiss (CD-1) mice, 5 weeks-old and having a mean body weight of 0.021±0.002 kg were divided in 3 groups: • Control Group (G1; solvant) containing 5 mice, received water at 5 mL/Kg at t-5 min and ^14C-proteins at 10 mL/Kg at T=0 min; • Group 2 (G2) containing 5 mice (OBE 5 mg/Kg), received OBE2001 at 5 mg/Kg at t-5 min and ^14C-proteins at 10 mL/Kg at T=0 min; • Group 3 (G3) containing […] (OBE 50 mg/Kg), received OBE2001 at 50 mg/Kg at t-5 min and ^14C-proteins at 10 mL/Kg at T=0 min.
# A preparation containing 5 ml of Clinoleic 20 (Baxter Ref DDB9500) with 1 g of glucose (Sigma; ref:G8270) and 1 g of casein (Sigma; ref: C3400) was prepared. Water was added until the solution reached 10 ml. After concentration of the radioactive solution containing the ^14C proteins (GE Healthcare; ref: CFA626) (×10), 200 μl of this radioactive solution was added to 2.8 ml of the preparation, in order to reach a concentration of ca 3.3 μCi/ml. The animals were starved before administration of this radioactive preparation. The radioactive preparation was orally administered by intragastric gavage with a single dosing (ca 33.3 μCi/kg) in a volume of ca 10 ml/kg of body weight.
# OBE2001 was provided in a mixture of two salts (HCl and TFA) with a 90% purity. OBE2001 was orally administered by intragastric gavage with a single dosing of 5 mg/Kg for G2 and 50 mg/Kg for G3 in a volume of ca 5 mL/kg body-weight.
# Plasma aliquots were removed and placed into 6 ml pre-weighed plastic vials, at t+15, t+30, t+60, t+120 and t+240 min. About 4 ml Pico-fluor 40 was added and after shaking, the total radioactivity contained within the different samples was determined by liquid scintillation using a Packard 1900 CA spectrometer equipped with an external standard system (spectral analysis). A quenching curve for calibration purposes was set up using a ^14C quenched set supplied by Packard Instruments.
# Liquid scintillation (LS) Counting was carried out with 2 sigma=2%, and for a maximum duration of 5 minutes (according to the method created in the 1900CA® software). Dpm (disintegration per minute) values of less than twice the background level of blank biological medium were reported as BLQ (Below the Limit of Quantitation).
# Plasmin = Plasmin (Homo sapiens, UniProt P00747); test: Plasmin
# Source text: as §1
# Head of the field: Plasmin
# as §2, §3
# Where the first naming reader finds the target: head: Plasmin
# [2] = Effect on weight in a model of obesity induced by a hyperlipidic diet; type: in vivo, mice; details: 40 mg/kg/day oral; for gain or loss of weight according to the initial weight, mean: high fat diet, Swiss male mice
# Description: 1. Effect of OBE2001 on Weight
# The aim of this first in vivo experiment is to determine the anti-obesity effect of OBE2001 in a model of obesity induced by a hyperlipidic diet in mice.
# OBE2001 (Acetyl-Ala-Phe-BoroArg) was provided under salt form (molecular weight of 568.3 g/mol). Swiss male mice, 4 weeks of age, were divided into 2 groups of 10 animals each, receiving the following:
# Administration of OBE2001 was carried out as a solution in water. Both OBE2001 or vehicle (water used a negative control) were administrated to the animals daily by the oral route in an administration of 5 ml/kg body weight.
# Concerning the feeding of the animals, before the experiments (acclimation period), normal diet (reference No. 824050 SDSIDIETEX food) was available ad libitum during the acclimation period. 7 days before the beginning of the study, a hypercaloric High Fat diet ([…], 4.73 Kcal/g; reference 824053 SDSIDIETEX) was given to groups 1 and 2.
# Animals were weighed daily from at D-8 (8 days before the beginning of the experiment) then from D-5 to the end of the study. From D1 (first day of the experiment), food was given ad libitum.
# Kallikrein = Kallikrein (Homo sapiens, UniProt P03952); test: Kallikrein
# Source text: as §1
# Head of the field: Kallikrein
# as §2, §3
# Where the first naming reader finds the target: head: Kallikrein
# Kallikrein, sequence (P03952 20-638): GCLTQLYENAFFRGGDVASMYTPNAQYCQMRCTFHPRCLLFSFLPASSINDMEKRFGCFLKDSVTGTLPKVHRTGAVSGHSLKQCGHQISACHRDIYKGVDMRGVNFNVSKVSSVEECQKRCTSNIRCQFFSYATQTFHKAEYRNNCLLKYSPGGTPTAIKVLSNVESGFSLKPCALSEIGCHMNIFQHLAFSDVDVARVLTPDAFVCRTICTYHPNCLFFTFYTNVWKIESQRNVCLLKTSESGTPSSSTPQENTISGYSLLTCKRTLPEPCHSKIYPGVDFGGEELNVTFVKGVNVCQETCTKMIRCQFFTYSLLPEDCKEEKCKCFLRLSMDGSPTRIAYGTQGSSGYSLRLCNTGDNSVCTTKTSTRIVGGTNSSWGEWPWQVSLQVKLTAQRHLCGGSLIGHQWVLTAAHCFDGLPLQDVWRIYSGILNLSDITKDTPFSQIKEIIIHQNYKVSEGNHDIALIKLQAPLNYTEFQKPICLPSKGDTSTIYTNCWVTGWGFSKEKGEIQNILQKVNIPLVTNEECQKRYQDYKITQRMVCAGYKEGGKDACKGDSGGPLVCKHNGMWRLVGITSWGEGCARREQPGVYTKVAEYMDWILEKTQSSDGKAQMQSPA
# Plasmin, sequence (P00747 97-810): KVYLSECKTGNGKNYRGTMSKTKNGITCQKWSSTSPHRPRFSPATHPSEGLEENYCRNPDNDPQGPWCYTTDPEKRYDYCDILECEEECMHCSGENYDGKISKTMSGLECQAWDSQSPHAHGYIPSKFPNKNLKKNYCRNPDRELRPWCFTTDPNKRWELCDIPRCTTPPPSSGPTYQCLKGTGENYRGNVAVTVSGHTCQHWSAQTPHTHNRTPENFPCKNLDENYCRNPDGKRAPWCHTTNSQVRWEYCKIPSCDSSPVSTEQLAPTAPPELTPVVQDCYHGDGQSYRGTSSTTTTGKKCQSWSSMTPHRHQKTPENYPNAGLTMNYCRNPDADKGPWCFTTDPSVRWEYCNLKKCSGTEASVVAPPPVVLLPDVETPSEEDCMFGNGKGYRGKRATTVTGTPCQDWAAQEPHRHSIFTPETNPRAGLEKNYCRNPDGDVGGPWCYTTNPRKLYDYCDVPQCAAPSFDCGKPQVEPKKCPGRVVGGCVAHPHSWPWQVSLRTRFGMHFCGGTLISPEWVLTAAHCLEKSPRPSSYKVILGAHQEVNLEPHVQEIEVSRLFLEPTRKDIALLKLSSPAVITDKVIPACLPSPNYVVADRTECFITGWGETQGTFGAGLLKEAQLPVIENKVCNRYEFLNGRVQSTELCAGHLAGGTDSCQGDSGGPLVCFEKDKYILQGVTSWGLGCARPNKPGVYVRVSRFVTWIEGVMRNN
# Enteropeptidase, sequence (P98073 2-1019): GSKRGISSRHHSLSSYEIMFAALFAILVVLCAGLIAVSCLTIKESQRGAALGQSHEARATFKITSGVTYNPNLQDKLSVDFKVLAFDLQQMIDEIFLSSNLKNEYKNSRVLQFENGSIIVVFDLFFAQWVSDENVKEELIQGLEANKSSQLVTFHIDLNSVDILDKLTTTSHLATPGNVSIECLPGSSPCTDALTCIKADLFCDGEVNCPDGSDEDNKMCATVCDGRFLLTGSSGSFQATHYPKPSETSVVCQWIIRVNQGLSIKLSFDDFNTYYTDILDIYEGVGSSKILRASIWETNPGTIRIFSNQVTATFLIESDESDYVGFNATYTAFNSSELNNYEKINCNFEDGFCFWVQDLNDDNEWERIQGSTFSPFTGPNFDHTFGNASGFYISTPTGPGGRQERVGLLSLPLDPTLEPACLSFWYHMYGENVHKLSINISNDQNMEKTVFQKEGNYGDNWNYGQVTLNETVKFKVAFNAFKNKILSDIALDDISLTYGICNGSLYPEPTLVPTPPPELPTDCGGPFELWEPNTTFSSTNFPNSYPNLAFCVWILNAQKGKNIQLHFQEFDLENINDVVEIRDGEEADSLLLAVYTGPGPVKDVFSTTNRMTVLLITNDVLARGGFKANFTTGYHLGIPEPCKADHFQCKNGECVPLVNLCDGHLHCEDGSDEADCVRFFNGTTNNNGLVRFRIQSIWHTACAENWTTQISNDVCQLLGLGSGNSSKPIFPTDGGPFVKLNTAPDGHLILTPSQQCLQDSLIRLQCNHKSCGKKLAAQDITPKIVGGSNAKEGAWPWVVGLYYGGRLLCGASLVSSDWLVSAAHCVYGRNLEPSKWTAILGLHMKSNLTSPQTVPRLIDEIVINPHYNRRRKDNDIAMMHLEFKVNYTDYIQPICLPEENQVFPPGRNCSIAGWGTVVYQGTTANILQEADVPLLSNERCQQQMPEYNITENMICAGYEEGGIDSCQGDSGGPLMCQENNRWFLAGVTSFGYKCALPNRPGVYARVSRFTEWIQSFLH
structure (smiles),measurement,setting,value
CC(=O)N[C@@H](C)C(=O)N[C@@H](Cc1ccccc1)C(=O)N[C@@H](CCCNC(=N)N)B1OC2C[C@@H]3C[C@@H](C3(C)C)[C@]2(C)O1 (stereo partly shown) [OBE2001],IC50,Enteropeptidase,7.3 nM
same,Cmax of 14C-protein radioactivity in plasma,[1]; 5 mg/kg oral at t-5 min,0.58%±0.54 % of administered dose/g
same,AUC mean of 14C-protein radioactivity in plasma,[1]; 5 mg/kg,1.841±0.6402 % dose.h.g-1
same,Cmax of 14C-protein radioactivity in plasma,[1]; 50 mg/kg oral at t-5 min,0.54%±0.24 % of administered dose/g
same,AUC mean of 14C-protein radioactivity in plasma,[1]; 50 mg/kg,1.718±0.4366 % dose.h.g-1
same,plateau concentration of 14C-protein radioactivity in plasma,[1]; 5 mg/kg,0.4 % administered dose/g
same,plateau concentration of 14C-protein radioactivity in plasma,[1]; 50 mg/kg,0.4 % administered dose/g
same,protein absorption compared to control mice,"[1]; first 30 minutes after protein administration, maintained at least 4 hours",greatly decreased
same,morbidity or mortality,"[1]; single oral dose 5 or 50 mg/kg, male Swiss mice",no sign of morbidity or mortality occurred
same,IC50,Plasmin,21.7 nM
same,weight of treated mice versus control group,"[2]; significant from day 4, highly significant from day 8",significantly lower
same,"gain or loss of weight according to the initial weight, mean",[2]; D1,-2.7 g
same,"gain or loss of weight according to the initial weight, mean",[2]; D2,-1.2 g
same,"gain or loss of weight according to the initial weight, mean",[2]; D3,-0.8 g
same,"gain or loss of weight according to the initial weight, mean",[2]; D4,0.2 g
same,"gain or loss of weight according to the initial weight, mean",[2]; D5,0.7 g
same,"gain or loss of weight according to the initial weight, mean",[2]; D6,1.0 g
same,"gain or loss of weight according to the initial weight, mean",[2]; D7,0.9 g
same,"gain or loss of weight according to the initial weight, mean",[2]; D8,1.3 g
same,"gain or loss of weight according to the initial weight, mean",[2]; D9,1.0 g
same,"gain or loss of weight according to the initial weight, mean",[2]; D10,1.1 g
same,"gain or loss of weight according to the initial weight, mean",[2]; D11,0.5 g
same,"gain or loss of weight according to the initial weight, mean",[2]; D12,1.8 g
same,"gain or loss of weight according to the initial weight, mean",[2]; D13,2.0 g
same,IC50,Kallikrein,6.9 nM

# — US9481709B2, “Boropeptide inhibitors of enteropeptidase and their uses in treatment of obesity, overweight and/or diseases associated with an abnormal fat metabolism” (OBE THERAPY BIOTECHNOLOGY, priority 2007, dated 2016)
